Experimental data published in US12202805B2, “Process for preparing (5S)-{[2-(4-carboxyphenyl)ethyl] |2-(2-{|3-chloro-4'-(trifluoromethyl)biphenyl-4-yl]methoxy}phenyl)ethyl]aminol-5,6,7,8-tetrahydroquinoline-2-carboxylic acid and its crystalline forms for use as pharmaceutically active compound” (Bayer Aktiengesellschaft, priority 2021, dated 2025).
One block for each compound: values may come before it.

Tests used:
[1] = test system: thromboxane A2 challenged PAH-minipig; assay: Haemodynamics in the anesthetized thromboxane challenged minipig, inhaled nebulized solution (PAP, BP); type: in vivo, Göttingen Minipigs; details: 10 μg/kg nominal dose inhaled, mean
Method: E-1 Haemodynamics in the Anesthetized Thromboxane Challenged Minipig
Lung Selectivity and Duration of Action
Healthy Göttingen Minipigs® Ellegaard (Ellegaard, Denmark) of both sexes and having a weight of 2-6 kg were used. The animals were sedated by i.m. administration of about 25 mg/kg ketamine and about 10 mg/kg azaperone. Anaesthesia was initiated by i.v. administration of about 2 mg/kg ketamine and about 0.3 mg/kg midazolam. Maintenance of anaesthesia was by i.v. administration of about 7.5-30 mg/kg/h ketamine and about 1-4 mg/kg/h midazolam (rate of infusion 1-4 ml/kg/h) and about 150 μg/kg/h pancuronium bromide (for example Pancuronium-Actavis). After intubation, the animals were ventilated by the ventilator at a constant respiratory volume (10-12 ml/kg, 35 breaths/min; Avea®, Viasys Healthcare, USA, or Engström Carestation, GE Healthcare, Freiburg, Germany) such that an end-tidal CO2 concentration of about 5% was achieved. Ventilation was performed with room air, enriched with about 40% oxygen (normoxia). For the measurement of the haemodynamic parameters such as pulmonary arterial pressure (PAP), blood pressure (BP) and heart rate (HR), catheters were inserted into the carotid artery to measure the blood pressure, and a Swan-Ganz® catheter was introduced in a flow-directed manner via the jugular vein into the pulmonary artery. The haemodynamic signals were recorded and evaluated by means of pressure transducers (Combitransducer, B. Braun, Melsungen, Germany)/amplifiers and Ponemah® as data acquisition software.
After the instruments have been placed into the animals, continuous infusion of a thromboxane A2 analog was initiated to increase the pulmonary arterial pressure. About 0.3-0.75 μg/kg/min of 9,11-didesoxy-9α,11α-epoxymethanoprostaglandine F2α (U-44069; Sigma, cat. no. D0400, or Cayman Chemical Company, cat. no. 16440), dissolved in physiological saline, were infused to achieve an increase of the mean pulmonary arterial pressure to values of over 25 mmHg. 30 minutes after the start of the infusion, a plateau was reached, and the experiment was started.
The test substances were administered as i.v. infusion or by inhalation. For the preparation of the solution for inhalation, the following procedure was adopted: For an animal having a weight of 4 kg, to prepare the stock solution (300 μg/kg), 1.2 mg of the test compound were weighed out and dissolved in a total volume of 3 ml (1% DMSO, 99% 0.2% strength citric acid solution, 1 n aqueous sodium hydroxide solution to adjust the pH to 8). The solution was then diluted to the concentration employed using 0.2% strength citric acid which had been adjusted to pH 8 beforehand with aqueous sodium hydroxide solution. In each test, 3 ml of the solution of test compound per 4 kg animal were nebulized in the inhalation arm of the respiratory circuit using the Aeroneb® Pro nebulizer system. The mean nebulization time was about 7 min from the start of the nebulization.
With respect to a prediction of the duration of action for human studies comparative example 11 was compared in the PAH minipig model after inhaled application to Ventavis® (=Iloprost, 10 μg/kg nominal dose), which we used as a clinical reference. […] Therefore, the duration of action is more than 6 times longer compared to Ventavis in this preclinical animal model.

[2] = test system: patients with severe pulmonary hypertension; details: cited from earlier work
Caco-2 permeability test = type: in vitro ADME, human; details: human, Caco-2, 2.4 μM
Method: E-3. Further Characterization E-3.1 Caco-2 Permeability Test
The in vitro permeation of a test compound across a Caco-2 cell monolayer is a well-established assay system to predict the permeability from the gastro-intestinal tract (1). The permeability of the compounds of the present invention in such Caco-2 cells was determined as described below:
Human caco-2 cells were seeded on 24-well insert plates and were allowed to grow for 14-16 days. For permeability studies, the test compounds were dissolved in DMSO and diluted to the final test concentration of 2 μM with transport buffer [Hanks' Buffered Salt Solution, Gibco/Invitrogen, further supplemented with glucose and HEPES]. For determination of the apical to basolateral permeability (PappA-B), the test compound solution was added to the apical side of the cell monolayer and transport buffer to the basolateral side of the monolayer; for determination of the basolateral to apical permeability (PappB-A), the test compound solution was added to the basolateral side of the cell monolayer and transport buffer to the apical side of the monolayer. Samples were taken from the donor compartment at the beginning of the experiment to confirm mass balance. After an incubation of 2 h at 37° C., samples were taken from both compartments. Samples were analyzed by LC-MS/MS, and the apparent permeability coefficients were calculated. Lucifer Yellow permeability was assayed for each cell monolayer to ensure cell monolayer integrity, and the permeability of Atenolol (low permeability marker) and Sulfasalazine (marker for active excretion) was determined for each batch as quality control.

[3] = test system: animal model of pulmonary hypertension; details: cited from earlier work

Compound: CC#CCC(C)[C@H](O)/C=C/[C@@H]1[C@H]2C/C(=C/CCCC(=O)O)C[C@H]2C[C@H]1O (stereo partly shown) [Ventavis ®]
PAP % changes vs prevalue ([1]; time 0 min): 0% | PAP % changes vs prevalue ([1]; time 10 min): −30.3% | PAP % changes vs prevalue ([1]; time 20 min): −20.7% | PAP % changes vs prevalue ([1]; time 30 min): −6.9% | PAP % changes vs prevalue ([1]; time 40 min): 1.7% | PAP % changes vs prevalue ([1]; time 50 min): 4.9%

Compound: CC#CCC(C)[C@H](O)/C=C/[C@@H]1[C@H]2C/C(=C/CCCC(=O)O)C[C@H]2C[C@H]1O (stereo partly shown) [Ventavis]
duration of action on haemodynamics (PVR) ([2]; clinical studies): about 60 min

efflux ratio at 2 h, 2.4 μM (Caco-2 permeability test): 11 ± 3.3 | Papp A→B at 2 h, 2.4 μM (Caco-2 permeability test; 2 h at 37° C., read-out: Papp A − B (mean +/− SD)): 3.5 ± 0.84 ×10⁻⁶ cm/s | Papp B→A at 2 h, 2.4 μM (Caco-2 permeability test; 2 h at 37° C., read-out: Papp B − A (mean +/− SD)): 36.7 ± 7.5 ×10⁻⁶ cm/s
Compound: COC(=O)N(C)c1c(N)nc(-c2nn(Cc3ccccc3F)c3ncccc23)nc1N [Comparative example 2 (Riociguat)]

Compound: CCCCC[C@H](O)CC[C@@H]1[C@H]2Cc3cccc(OCC(=O)O)c3C[C@H]2C[C@H]1O [Treprostinil]
mean change in PVR from baseline ([2]; inhaled, single administration, historical comparison): approximately −30%

Compound: O=C(O)CCCCN(CCc1ccccc1OCc1ccc(CCc2ccccc2)cc1)Cc1ccc(C(=O)O)cc1 [comparative example 1]
effect on pulmonary arterial pressure ([3]; inhalative administration in the form of microparticles): dose-dependent selective reduction of the pulmonary arterial pressure | duration of action ([3]; inhalative administration): did not have a sufficient duration of action
